Patent publication US20260217701A1, “SELECTIVE BET INHIBITORS AND USES THEREOF” (Tay Therapeutics Limited, priority 2022, published 2026)

Test system: imiquimod-induced psoriasis
Assay: Imiquimod-induced psoriasis model
Assay type: in vivo, mice
Settings: for Mean scores of the presence of erythema on the skin of animals at the area of induction of psoriasis / Mean scores of the presence of induration on the skin of animals at the area of induction of psoriasis / Mean scores of the presence of peeling on the skin of animals at the area of induction of psoriasis: mean ± SEM; for Mean PASI Scores in IMI-Psoriasis Model: mice
How it was run: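 Mice given topical imiquimod (5% cream) daily on depilated backs Days 1–14; Compound A in 5% DMSO/40% PEG-400/55% saline from Day 8, clobetasol topical as reference. Daily PASI (erythema, induration, peeling, each 0–4, summed) Days 8–15; spleen weight, open-field behaviour, serum IL-1B, IL-6, IL-17, TNF-α, IL-22, IL-23 at Day 15.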

[1] = IMI + 10 mg/kg, D8 (before start of treatment)

## Cn1cc(-c2ccccc2)c(-c2cn(C)c(=O)c3[nH]c(-c4cnn(C(F)(F)F)c4)cc23)cc1=O [Compound A, 6-methyl-4-(1-methyl-2-oxo-5-phenyl-1,2-dihydropyridin-4-yl)-2-(1-(trifluoromethyl)-1H-pyrazol-4-yl)-1,6-dihydro-7H-pyrrolo[2,3-c]pyridin-7-one]
IMI + 3 mg/kg, D15
  Mean scores of the presence of erythema on the skin of animals at the area of induction of psoriasis: 0.0 ± 0.0
  Mean scores of the presence of induration on the skin of animals at the area of induction of psoriasis: 0.1 ± 0.1
  Mean scores of the presence of peeling on the skin of animals at the area of induction of psoriasis: 0.3 ± 0.2
  Mean PASI Scores in IMI-Psoriasis Model: 0.4 ± 0.2
[1]
  Mean scores of the presence of erythema on the skin of animals at the area of induction of psoriasis: 2.3 ± 0.2
  Mean scores of the presence of induration on the skin of animals at the area of induction of psoriasis: 2.6 ± 0.2
  Mean scores of the presence of peeling on the skin of animals at the area of induction of psoriasis: 2.3 ± 0.3
  Mean PASI Scores in IMI-Psoriasis Model: 7.1 ± 0.4
IMI + 10 mg/kg, D9
  Mean scores of the presence of erythema on the skin of animals at the area of induction of psoriasis: 1.2 ± 0.2
  Mean scores of the presence of induration on the skin of animals at the area of induction of psoriasis: 2.0 ± 0.3
  Mean scores of the presence of peeling on the skin of animals at the area of induction of psoriasis: 2.0 ± 0.3
  Mean PASI Scores in IMI-Psoriasis Model: 5.3 ± 0.6
IMI + 10 mg/kg, D10
  Mean scores of the presence of erythema on the skin of animals at the area of induction of psoriasis: 1.0 ± 0.2
  Mean scores of the presence of induration on the skin of animals at the area of induction of psoriasis: 1.8 ± 0.2
  Mean scores of the presence of peeling on the skin of animals at the area of induction of psoriasis: 1.5 ± 0.2
  Mean PASI Scores in IMI-Psoriasis Model: 4.3 ± 0.5
IMI + 10 mg/kg, D11
  Mean scores of the presence of erythema on the skin of animals at the area of induction of psoriasis: 1.3 ± 0.2
  Mean scores of the presence of induration on the skin of animals at the area of induction of psoriasis: 1.6 ± 0.2
  Mean scores of the presence of peeling on the skin of animals at the area of induction of psoriasis: 1.5 ± 0.2
  Mean PASI Scores in IMI-Psoriasis Model: 4.4 ± 0.4
IMI + 10 mg/kg, D12
  Mean scores of the presence of erythema on the skin of animals at the area of induction of psoriasis: 0.5 ± 0.2
  Mean scores of the presence of induration on the skin of animals at the area of induction of psoriasis: 1.1 ± 0.2
  Mean scores of the presence of peeling on the skin of animals at the area of induction of psoriasis: 1.3 ± 0.2
  Mean PASI Scores in IMI-Psoriasis Model: 2.9 ± 0.5
IMI + 10 mg/kg, D13
  Mean scores of the presence of erythema on the skin of animals at the area of induction of psoriasis: 0.1 ± 0.1
  Mean scores of the presence of induration on the skin of animals at the area of induction of psoriasis: 0.8 ± 0.2
  Mean scores of the presence of peeling on the skin of animals at the area of induction of psoriasis: 0.6 ± 0.2
  Mean PASI Scores in IMI-Psoriasis Model: 1.5 ± 0.2
IMI + 10 mg/kg, D14
  Mean scores of the presence of erythema on the skin of animals at the area of induction of psoriasis: 0.0 ± 0.0
  Mean scores of the presence of induration on the skin of animals at the area of induction of psoriasis: 0.4 ± 0.2
  Mean scores of the presence of peeling on the skin of animals at the area of induction of psoriasis: 0.3 ± 0.2
  Mean PASI Scores in IMI-Psoriasis Model: 0.6 ± 0.2
IMI + 10 mg/kg, D15
  Mean scores of the presence of erythema on the skin of animals at the area of induction of psoriasis: 0.0 ± 0.0
  Mean scores of the presence of induration on the skin of animals at the area of induction of psoriasis: 0.1 ± 0.1
  Mean scores of the presence of peeling on the skin of animals at the area of induction of psoriasis: 0.3 ± 0.2
  Mean PASI Scores in IMI-Psoriasis Model: 0.4 ± 0.2
IMI + 1 mg/kg, D8 (before start of treatment)
  Mean PASI Scores in IMI-Psoriasis Model: 7.3 ± 0.3
IMI + 1 mg/kg, D9
  Mean PASI Scores in IMI-Psoriasis Model: 7.0 ± 0.4
IMI + 1 mg/kg, D10
  Mean PASI Scores in IMI-Psoriasis Model: 6.0 ± 0.4
IMI + 1 mg/kg, D11
  Mean PASI Scores in IMI-Psoriasis Model: 5.8 ± 0.5
IMI + 1 mg/kg, D12
  Mean PASI Scores in IMI-Psoriasis Model: 4.4 ± 0.3
IMI + 1 mg/kg, D13
  Mean PASI Scores in IMI-Psoriasis Model: 3.1 ± 0.4
IMI + 1 mg/kg, D14
  Mean PASI Scores in IMI-Psoriasis Model: 2.1 ± 0.3
IMI + 1 mg/kg, D15
  Mean PASI Scores in IMI-Psoriasis Model: 1.1 ± 0.2
IMI + 3 mg/kg, D8 (before start of treatment)
  Mean PASI Scores in IMI-Psoriasis Model: 6.9 ± 0.4
IMI + 3 mg/kg, D9
  Mean PASI Scores in IMI-Psoriasis Model: 6.8 ± 0.4
IMI + 3 mg/kg, D10
  Mean PASI Scores in IMI-Psoriasis Model: 5.5 ± 0.3
IMI + 3 mg/kg, D11
  Mean PASI Scores in IMI-Psoriasis Model: 4.0 ± 0.3
IMI + 3 mg/kg, D12
  Mean PASI Scores in IMI-Psoriasis Model: 3.5 ± 0.4
IMI + 3 mg/kg, D13
  Mean PASI Scores in IMI-Psoriasis Model: 1.8 ± 0.3
IMI + 3 mg/kg, D14
  Mean PASI Scores in IMI-Psoriasis Model: 0.8 ± 0.3
mouse, in vivo
  body weight change over the last 7 days: weight gains
  erythema, induration and peeling of the skin at the area of induction: significantly reduced
Relative to vehicle-treated psoriasis animals
  use of enrichment (nesting): restored the use of enrichment
serum, day 15
  IL-17 level, lower than vehicle (placebo) treated animals: > 93%
